Experimental data from patent US10052304B2, “Compositions and methods for cancer therapy” (UNIVERSITY OF IOWA RESEARCH FOUNDATION, priority 2015, dated 2018).

Legend:
[1] = test system: NHAs; assay: Cellular labile iron pool (Calcein-AM flow cytometry), NHAs; type: cell-based, human; conditions: increasing doses of ascorbate
Method: The labile iron pool (LIP) was visualized using the fluorescent dye Calcein-AM as previously described (Epsztejn et al., 1997) with modifications. After labeling, samples were divided into two flow cytometry sample tubes, to which 100 μM 2′,2′-bipyridyl (BIP) was added to one tube and analyzed by flow cytometry. BIP tubes were incubated for at least 15 minutes before analysis to allow for full chelation of intracellular labile iron. The LIP (A.U.)=MFIBIP−MFINoBIP was normalized against the control samples to calculate the relative labile iron pool.
The labile iron pool (LIP) was visualized using the fluorescent dye Calcein-AM as previously described with modifications (Epsztejn et al., 1997). Briefly, after sample treatment, cells were trypsinized, spun at 1,200 rpm for 5 min, and resuspended at approximately 1×10^6 cells mL-1 in 500 nM Calcein-AM in PBS. Samples were incubated for 15 min at 4% O2 in a humidity controlled environment (37° C., 5% CO2). Subsequently, samples were pelleted, washed in PBS, and resuspended in 1 mL PBS before dividing each sample into two flow cytometry sample tubes, to which 100 μM 2′,2′-bipyridyl (BIP) was added to one tube. Samples were kept at room temperature and analyzed on a LSR II Flow Cytometer (BD Biosciences; λex=488 nm, λem=515/20 nm). […]

[2] = test system: NHA; conditions: 1 h ascorbate + 25 μM temozolomide + 2 Gy IR
Method: After treatment, cells were washed with PBS and clonogenic assay was completed in their respective media as previously described (Fath et al., 2011). Treatment conditions for individual experiments are as described in the figure legends and summarized in the Supplemental Experimental Procedures.
1-2×10^5 cells were plated in 60 mm cell culture dishes and grown in their respective media for 48 h before exposed to experimental conditions. […] For AdGPx1 experiments, cells were supplemented with 50 nM sodium selenite following transduction and throughout clonogenic growth. […] After treatment, cells were washed with PBS and clonogenic assay was completed in their respective media. Briefly, floating and attached cells were collected and total cells per plate were counted. An experimentally derived number of cells were plated into each well of a 6-well cell culture plate in their respective media. For HEL92.1.7 suspension cells, cells were seeded in a top layer of 0.4% (w/v) agarose to allow for quantifiable colony formation. After sufficient time (7-12 days, cell type-dependent), cells were fixed in 70% ethanol and stained with a Brilliant Blue methanol solution. […] Normalized survival fractions were calculated by comparing plating efficiencies of each treatment group against the control group within a given experiment.

[3] = test system: terminal cancer patients; conditions: high doses of ascorbate given both IV and orally; cited from earlier work
[4] = test system: aconitase; assay: Total cellular aconitase activity after ascorbate exposure; type: cell-based, human; conditions: 15 pmol cell^−1 ascorbate for 1 h, NSCLC cell lysates
Method: Exponentially growing cells were scraped and frozen as dry pellets until assayed for total activity. Aconitase activity was measured as the rate of appearance of NADPH (at 340 nm; Beckman DU 800 spectrophotometer, Brea, Calif.) for 45 min during the reaction of 200 μg total sample protein with 200 μM NADP^+ and 10 U isocitrate dehydrogenase as previously described (Case et al., 2011). Maximal ETC complex activity was measured as previously described (Birch-Machin et al., 1994). Complex I activity was quantified as the rate of rotenone-inhibitable NADH oxidation (320 nm; c=6.22 mM^−1 cm^−1). Complex II activity as the difference in the rate of DCIP reduction in the presence and absence of succinate (at 600 nm; ε=19.1 mM^−1 cm^−1). Complex IV activity was assayed as the rate of oxidation of cytochrome c ([…]; ε=19.6 mM^−1 cm^−1). Rates of activities were normalized to total protein by Lowry.
Exponentially growing cells were scraped and frozen as dry pellets until assayed for total aconitase activity adapted from as previously described (Case et al., 2011). […] Protein was quantified by the Lowry method (Lowry et al., 1951). Aconitase activity was measured as the rate of appearance of NADPH (at 340 nm; Beckman DU 800 spectrophotometer, Brea, Calif.) for 45 min during the reaction of 200 μg total sample protein with 200 μM NADP+ and 10 U isocitrate dehydrogenase.

O=C1O[C@H]([C@@H](O)CO)C(O)=C1O [ascorbate, L-ascorbic acid]
cellular LIP after ascorbate [1]: not seen
sensitization to temozolomide + IR (clonogenic survival) [2]: not
average increase in survival [3]: 300 days
aconitase activity [4]: inactivation
